Experimental data reported in patent US5288705A, “Manipulation of ovulation and spawning in fish” (Israel Oceanographic & Limnological Research Ltd., priority 1988, dated 1994).

Tests used:
Format in all cases: in vivo
[1] = system: females of rainbow trout, Salmo gaixdneri; test: Occurrence of ovulation monitored by ovarian biopsy (Example 4)
Procedure: (§1) 24 females of rainbow trout, Salmo gaixdneri, were divided into four groups, six fish in each group. Each group received one of the following treatments:
(§2) 1. Injection of the mammalian GnRHa as in Example 1 ([…] body weight), in saline;
(§3) 2. Administration of a biodegradable copolymer of polylactic-polyglycolic acid containing the same GnRHa (150 mg/fish 150 μg/fish) in pellets, implanted under the fish's skin;
(§4) 3. Ethylene vinyl acetate copolymer pellets containing a fish GnRH analog (GNRHH) - [D-Arg^6 -Pro^9 -NET]sGnRH (150 mg/fish 150 μg/fish),implanted under the skin;
An additional four groups of 20 females in each group, undergoing advanced stages of vitellogenesis, were treated as above and used for monitoring the state of ovarian development and the occurrence of ovulation. An overian biopsy was sampled from these females every 2 to 4 days for 30 days post-treatment.

[2] = system: females of rainbow trout, Salmo gaixdneri; test: Blood GtH levels after hormone administration (Example 4)
Procedure: as §1, §2, §3, §4
All fish were bled before and at different intervals after hormone administration, for the determination of blood GtH levels, similarly as in Example 1.

[3] = system: Female seabream (Sparus aurata); test: Plasma GtH levels by specific homologous radioimmunoassay after GnRHa administration (Example 1); conditions: FIG. 1
Procedure: (§5) Female seabream (Sparus aurata) reaching final stages of vitellogenesis received one of the following treatment of GnRHa - an analog of mammalian GNRH ([D-Ala^6 -Pro^9 -NET]-LHRH):
(§6) 1. An intramuscular injection of GnRHa in a saline solution (10 μg GnRHa/kg body weight which is an acceptable amount for injection);
(§7) 2. Implantation of a Silastic implant (Sila.) according to Crim et al., 1986, containing GnRHa (150 μg GnRHa/fish);
(§8) 3. Implantation of a biodegradable copolymer of polylacticpolyglycolic acid (Z. implant) containing GnRHa (150 μg GnRHa/fish);
(§9) 4. Placebo injection of saline (Control).
Before the treatment and at various intervals thereafter, the fish were bled. After withdrawing a blood sample the fish were returned into the water. GtH levels were determined in the withdrawn blood sample by specific homologous radioimmunoassay. The results are shown in FIG. 1 of the annexed drawings.

[4] = system: Female seabream (Sparus aurata); test: Spawning activity of treated females kept with two males (Example 1); conditions: spawning activity = tens of thousands of fertilized eggs per day over more than one week
Procedure: as §5, §6, §7, §8, §9
Additionally, several treated, non-bled females from each treatment group were kept, each in a separate container, which was connected to an egg collector, together with two males. The females were followed for their spawning activity, which was defined in this experiment as tens of thousands of fertilized eggs collected per day over a period of more than one week.

[D-Ala^6 -Pro^9 -NET]-LHRH [Group 1]
degree of ovulation (in percent of ovulated females) ([1]; 6 days post treatment): 30%
degree of ovulation (in percent of ovulated females) ([1]; 9 days post treatment): 40%
degree of ovulation (in percent of ovulated females) ([1]; 30 days post treatment): 60%
acceleration / synchronization of ovulation ([1]; versus control group): did not accelerate or synchronize ovulation
period of GtH level surge in plasma [2]: about 48 hrs.
plasma GtH level / GtH release [3]: decreased rapidly
percentage of the females showing spawning activity [4]: 25%
